According to BindingDB's records for doi:10.1021/jm010087e (The University of Western Australia, 2001):

Assay: Inhibitory activity against clostridium histolyticum collagenase
For CC(C(=O)NO)N(Cc1ccccc1[N+](=O)[O-])S(=O)(=O)c1cccc([N+](=O)[O-])c1 (centres undefined) [N-Hydroxy-2-[(3-nitro-benzenesulfonyl)-(2-nitro-benzyl)-amino]-propionamide], the Ki was 10 nM.
With CC(C(=O)NO)N(Cc1ccccc1[N+](=O)[O-])S(=O)(=O)c1cccc2ccccc12 (centres undefined) [N-Hydroxy-2-[(naphthalene-1-sulfonyl)-(2-nitro-benzyl)-amino]-propionamide] the Ki was 6 nM.
In the case of CC(C(=O)O)N(Cc1ccccc1[N+](=O)[O-])S(=O)(=O)c1ccc(NC(=O)OC(C)(C)C)cc1 (centres undefined) [2-[(4-tert-Butoxycarbonylamino-benzenesulfonyl)-(2-nitro-benzyl)-amino]-propionic acid], the Ki is reported as 2600 nM.
With Cc1ccccc1S(=O)(=O)NC(=O)N(Cc1ccccc1[N+](=O)[O-])C(C)C(=O)O (centres undefined) [2-[({[(2-methylphenyl)sulfonyl]amino}carbonyl)(2-nitrobenzyl)amino]propanoic acid] the Ki was 3000 nM.
Compound CC(C(=O)O)N(Cc1ccccc1[N+](=O)[O-])S(=O)(=O)c1ccc(Cl)cc1 (centres undefined) [2-[(4-Chloro-benzenesulfonyl)-(2-nitro-benzyl)-amino]-propionic acid] has a Ki of 11000 nM.
For CC(C(=O)NO)N(Cc1ccccc1[N+](=O)[O-])C(=O)NS(=O)(=O)c1ccc(Cl)cc1 (centres undefined) [2-[({[(4-chlorophenyl)sulfonyl]amino}carbonyl)(2-nitrobenzyl)amino]-N-hydroxypropanamide], the Ki was 7 nM.
In the case of CC(C(=O)NO)N(Cc1ccccc1[N+](=O)[O-])C(=O)Nc1cccc(Cl)c1 (centres undefined) [2-[3-(3-Chloro-phenyl)-1-(2-nitro-benzyl)-ureido]-N-hydroxy-propionamide], the Ki is reported as 17 nM.
Compound Cc1ccc(S(=O)(=O)N(Cc2ccccc2[N+](=O)[O-])C(C)C(=O)NO)cc1 (centres undefined) [N-Hydroxy-2-[(2-nitro-benzyl)-(toluene-4-sulfonyl)-amino]-propionamide] has a Ki of 41 nM.
Cc1ccccc1S(=O)(=O)NC(=O)N(Cc1ccccc1[N+](=O)[O-])C(C)C(=O)NO (centres undefined) [N-hydroxy-2-[({[(2-methylphenyl)sulfonyl]amino}carbonyl)(2-nitrobenzyl)amino]propanamide] gave a Ki of 9 nM.
Compound CC(C(=O)NO)N(Cc1ccccc1[N+](=O)[O-])S(=O)(=O)c1cc(Cl)ccc1Cl (centres undefined) [2-[(2,5-Dichloro-benzenesulfonyl)-(2-nitro-benzyl)-amino]-N-hydroxy-propionamide] has a Ki of 14 nM.
With CC(C(=O)NO)N(Cc1ccccc1[N+](=O)[O-])S(=O)(=O)c1ccccc1 (centres undefined) [2-[Benzenesulfonyl-(2-nitro-benzyl)-amino]-N-hydroxy-propionamide] the Ki was 59 nM.
With CC(C(=O)NO)N(Cc1ccccc1[N+](=O)[O-])Sc1ccccc1[N+](=O)[O-] (centres undefined) [N-Hydroxy-2-[(2-nitro-benzyl)-(2-nitro-phenylsulfanyl)-amino]-propionamide] the Ki was 12 nM.
Compound CC(C(=O)NO)N(Cc1ccccc1[N+](=O)[O-])S(=O)(=O)c1cccc(C(F)(F)F)c1 (centres undefined) [N-Hydroxy-2-[(2-nitro-benzyl)-(3-trifluoromethyl-benzenesulfonyl)-amino]-propionamide] has a Ki of 5 nM.
With CC(C(=O)NO)N(Cc1ccccc1[N+](=O)[O-])S(=O)(=O)c1cccs1 (centres undefined) [N-Hydroxy-2-[(2-nitro-benzyl)-(thiophene-2-sulfonyl)-amino]-propionamide] the Ki was 10 nM.
With CC(C(=O)O)N(Cc1ccccc1[N+](=O)[O-])S(=O)(=O)c1ccccc1[N+](=O)[O-] (centres undefined) [2-[(2-Nitro-benzenesulfonyl)-(2-nitro-benzyl)-amino]-propionic acid] the Ki was 4400 nM.
With CC(C(=O)O)N(Cc1ccccc1[N+](=O)[O-])S(=O)(=O)c1cc(Cl)cc(Cl)c1O (centres undefined) [2-[(3,5-Dichloro-2-hydroxy-benzenesulfonyl)-(2-nitro-benzyl)-amino]-propionic acid] the Ki was 2700 nM.
Compound CC(C(=O)O)N(Cc1ccccc1[N+](=O)[O-])Sc1ccccc1[N+](=O)[O-] (centres undefined) [2-[(2-Nitro-benzyl)-(2-nitro-phenylsulfanyl)-amino]-propionic acid] has a Ki of 6200 nM.
CC(C(=O)O)N(Cc1ccccc1[N+](=O)[O-])C(=O)Nc1cccc2ccccc12 (centres undefined) [2-[3-Naphthalen-1-yl-1-(2-nitro-benzyl)-ureido]-propionic acid] gave a Ki of 5000 nM.
Compound CC(C(=O)NO)N(Cc1ccccc1[N+](=O)[O-])S(=O)(=O)C(Cl)(Cl)Cl (centres undefined) [N-Hydroxy-2-[(2-nitro-benzyl)-trichloromethanesulfonyl-amino]-propionamide] has a Ki of 64 nM.
CC(=O)Nc1ccc(S(=O)(=O)N(Cc2ccccc2[N+](=O)[O-])C(C)C(=O)NO)cc1 (centres undefined) [2-[(4-Acetylamino-benzenesulfonyl)-(2-nitro-benzyl)-amino]-N-hydroxy-propionamide] showed a Ki of 12 nM.
For CC(C(=O)NO)N(Cc1ccccc1[N+](=O)[O-])S(=O)(=O)c1ccccc1[N+](=O)[O-] (centres undefined) [N-Hydroxy-2-[(2-nitro-benzenesulfonyl)-(2-nitro-benzyl)-amino]-propionamide], the Ki was 11 nM.
In the case of CC(C(=O)NO)N(Cc1ccccc1[N+](=O)[O-])S(=O)(=O)c1ccc([N+](=O)[O-])cc1 (centres undefined) [N-Hydroxy-2-[(4-nitro-benzenesulfonyl)-(2-nitro-benzyl)-amino]-propionamide], the Ki is reported as 13 nM.
Work on CC(C(=O)O)N(Cc1ccccc1[N+](=O)[O-])S(=O)(=O)C(F)(F)C(F)(F)C(F)(F)C(F)(F)C(F)(F)C(F)(F)C(F)(F)C(F)(F)F (centres undefined) [2-[(Heptadecafluorooctane-1-sulfonyl)-(2-nitro-benzyl)-amino]-propionic acid] yielded a Ki of 1700 nM.
In the case of CC(C(=O)O)N(Cc1ccccc1[N+](=O)[O-])C(=O)Nc1cccc(Cl)c1 (centres undefined) [2-[3-(3-Chloro-phenyl)-1-(2-nitro-benzyl)-ureido]-propionic acid], the Ki is reported as 6600 nM.
In the case of CC(C(=O)NO)N(Cc1ccccc1[N+](=O)[O-])S(=O)(=O)c1cccc2c(N(C)C)cccc12 (centres undefined) [2-[(5-Dimethylamino-naphthalene-1-sulfonyl)-(2-nitro-benzyl)-amino]-N-hydroxy-propionamide], the Ki is reported as 9 nM.
Work on CC(C(=O)NO)N(Cc1ccccc1[N+](=O)[O-])S(=O)(=O)c1ccc(Cl)cc1 (centres undefined) [2-[(4-Chloro-benzenesulfonyl)-(2-nitro-benzyl)-amino]-N-hydroxy-propionamide] yielded a Ki of 32 nM.
For CC(C(=O)NO)N(Cc1ccccc1[N+](=O)[O-])S(=O)(=O)c1cccc(NC(=O)OC(C)(C)C)c1 (centres undefined) [{3-[(1-Hydroxycarbamoyl-ethyl)-(2-nitro-benzyl)-sulfamoyl]-phenyl}-carbamic acid tert-butyl ester], the Ki was 8 nM.
For CC(C(=O)O)N(Cc1ccccc1[N+](=O)[O-])S(=O)(=O)c1ccc(Br)cc1 (centres undefined) [2-[(4-Bromo-benzenesulfonyl)-(2-nitro-benzyl)-amino]-propionic acid], the Ki was 10000 nM.
Work on COc1ccc(S(=O)(=O)N(Cc2ccccc2[N+](=O)[O-])C(C)C(=O)O)cc1 (centres undefined) [2-[(4-Methoxy-benzenesulfonyl)-(2-nitro-benzyl)-amino]-propionic acid] yielded a Ki of 5700 nM.
For CC(C(=O)O)N(Cc1ccccc1[N+](=O)[O-])S(=O)(=O)c1ccc([N+](=O)[O-])c(Cl)c1 (centres undefined) [2-[(3-Chloro-4-nitro-benzenesulfonyl)-(2-nitro-benzyl)-amino]-propionic acid], the Ki was 3100 nM.
For CC(C(=O)NO)N(Cc1ccccc1[N+](=O)[O-])Sc1ccc([N+](=O)[O-])cc1[N+](=O)[O-] (centres undefined) [2-[(2,4-Dinitro-phenylsulfanyl)-(2-nitro-benzyl)-amino]-N-hydroxy-propionamide], the Ki was 9 nM.
Work on CC(C(=O)O)N(Cc1ccccc1[N+](=O)[O-])S(C)(=O)=O (centres undefined) [2-[Methanesulfonyl-(2-nitro-benzyl)-amino]-propionic acid] yielded a Ki of 22000 nM.
Work on CC(C(=O)NO)N(Cc1ccccc1[N+](=O)[O-])Sc1ccc([N+](=O)[O-])cc1 (centres undefined) [N-Hydroxy-2-[(2-nitro-benzyl)-(4-nitro-phenylsulfanyl)-amino]-propionamide] yielded a Ki of 13 nM.
Compound CC(C(=O)O)N(Cc1ccccc1[N+](=O)[O-])S(=O)(=O)C(F)(F)C(F)(F)C(F)(F)C(F)(F)F (centres undefined) [2-[(2-Nitro-benzyl)-(nonafluorobutane-1-sulfonyl)-amino]-propionic acid] has a Ki of 2100 nM.
With CC(C(=O)NO)N(Cc1ccccc1[N+](=O)[O-])S(=O)(=O)c1ccc(I)cc1 (centres undefined) [N-Hydroxy-2-[(4-iodo-benzenesulfonyl)-(2-nitro-benzyl)-amino]-propionamide] the Ki was 34 nM.
CC(C(=O)NO)N(Cc1ccccc1[N+](=O)[O-])C(=O)Nc1ccc(F)cc1F (centres undefined) [2-[3-(2,4-Difluoro-phenyl)-1-(2-nitro-benzyl)-ureido]-N-hydroxy-propionamide] gave a Ki of 12 nM.
For CC(C(=O)O)N(Cc1ccccc1[N+](=O)[O-])S(=O)(=O)c1cccc2c(N(C)C)cccc12 (centres undefined) [2-[(5-Dimethylamino-naphthalene-1-sulfonyl)-(2-nitro-benzyl)-amino]-propionic acid], the Ki was 2100 nM.
CC(C(=O)O)N(Cc1ccccc1[N+](=O)[O-])S(=O)(=O)c1cccc2cccnc12 (centres undefined) [2-[(2-Nitro-benzyl)-(quinoline-8-sulfonyl)-amino]-propionic acid] gave a Ki of 2000 nM.
For CC(C(=O)NO)N(Cc1ccccc1[N+](=O)[O-])S(=O)(=O)c1ccc(C(=O)O)cc1 (centres undefined) [4-[(1-Hydroxycarbamoyl-ethyl)-(2-nitro-benzyl)-sulfamoyl]-benzoic acid], the Ki was 7 nM.
Work on CC(C(=O)NO)N(Cc1ccccc1[N+](=O)[O-])S(=O)(=O)c1cccc2cccnc12 (centres undefined) [N-Hydroxy-2-[(2-nitro-benzyl)-(quinoline-8-sulfonyl)-amino]-propionamide] yielded a Ki of 9 nM.
Compound Cc1cc(C)c(S(=O)(=O)N(Cc2ccccc2[N+](=O)[O-])C(C)C(=O)NO)c(C)c1 (centres undefined) [N-Hydroxy-2-[(2-nitro-benzyl)-(2,4,6-trimethyl-benzenesulfonyl)-amino]-propionamide] has a Ki of 21 nM.
Compound CC(C(=O)O)N(Cc1ccccc1[N+](=O)[O-])S(=O)(=O)c1cccc(NC(=O)OC(C)(C)C)c1 (centres undefined) [2-[(3-tert-Butoxycarbonylamino-benzenesulfonyl)-(2-nitro-benzyl)-amino]-propionic acid] has a Ki of 2500 nM.
For CC(C(=O)O)N(Cc1ccccc1[N+](=O)[O-])S(=O)(=O)c1ccc([N+](=O)[O-])cc1 (centres undefined) [2-[(4-Nitro-benzenesulfonyl)-(2-nitro-benzyl)-amino]-propionic acid], the Ki was 5000 nM.
With CC(C(=O)O)N(Cc1ccccc1[N+](=O)[O-])C(=O)Nc1ccc(F)cc1F (centres undefined) [2-[3-(2,4-Difluoro-phenyl)-1-(2-nitro-benzyl)-ureido]-propionic acid] the Ki was 6500 nM.
